What was measured:
WT mice (wild type mice) = assay: Screening simulation: fasting and glucose-tolerance blood glucose level after Exendin-4 in WT mice; format: in vivo, mouse; conditions: intraperitoneal, 0.1 mg per kg twice a day, after 1 week and 2 weeks, ANOVA p=0.02
Experimental: (§1) To the KO mice used for the verification of periodical changes of blood glucose level, Exendin-4 which is an agonist of a glucagon-like peptide-1 receptor known as a therapeutic agent for type 2 diabetes was intraperitoneally administrated as a test substance. A degree of type 2 diabetes was then evaluated using the KO mice to simulate the screening of the preventive or therapeutic agent for type 2 diabetes caused by the Cdkal1 abnormality.
(§2) The procedures for evaluating the degree of type 2 diabetes consists of measuring the fasting blood glucose level and glucose-tolerance blood glucose level for KO mice and WT mice, comparing the blood glucose levels for both of the mice, and evaluating them. In this test, Exendin-4 was administered twice a day for 2 weeks at a rate of 0.1 mg per kg, of body weight.

[1] = system: KO mice (Cdkal1 knock-out mice, type 2 diabetes model); assay: Screening simulation: fasting and glucose-tolerance blood glucose level after Exendin-4 in KO mice; format: in vivo, mouse; conditions: intraperitoneal, 0.1 mg per kg twice a day, after 1 week and 2 weeks, ANOVA p=0.02
Experimental: as §1, §2

Exendin-4
glucose tolerance (blood glucose level after glucose tolerance) (WT mice (wild type mice)): significantly improved glucose tolerance
glucose tolerance (blood glucose level after glucose tolerance) [1]: significantly improved glucose tolerance
